This test relates to MV-4-11 cells. The experiment in a line: Gene expression microarray analysis (Affymetrix PrimeView) and GSEA. Type of test: cell-based, human. Details: RFU PODN (11730768_x_at) / Fold change /veh PODN (11730768_x_at) / RFU LINC00158 (11744669_a_at) / Fold change /veh LINC00158 (11744669_a_at) / RFU DUSP10 (11751237_a_at) / Fold change /veh DUSP10 (11751237_a_at) / RFU ID3 (11757404_x_at) / Fold change /veh ID3 (11757404_x_at) / RFU PLEKHG5 (11737974_s_at) / Fold change /veh PLEKHG5 (11737974_s_at) / RFU LRRC4B (11730491_at) / Fold change /veh LRRC4B (11730491_at) / RFU GIMAP4 (11747438_a_at) / Fold change /veh GIMAP4 (11747438_a_at) / RFU KRT8 (11758183_x_at) / Fold change /veh KRT8 (11758183_x_at) / RFU CNN1 (11734310_a_at) / Fold change /veh CNN1 (11734310_a_at) / RFU VPS37D (11726825_at) / Fold change /veh VPS37D (11726825_at) / RFU C10orf10 (11716522_x_at) / Fold change /veh C10orf10 (11716522_x_at) / RFU KIR2DL2 /// KIR2DL4 /// KIR2DL5A /// KIR2DL5B /// KIR2DS1 /// KIR2DS2 /// KIR2DS3 /// KIR2DS4 /// KIR3DL3 /// KIR3DL3 /// KIR3DS1 (11738374_at) / Fold change /veh KIR2DL2 /// KIR2DL4 /// KIR2DL5A /// KIR2DL5B /// KIR2DS1 /// KIR2DS2 /// KIR2DS3 /// KIR2DS4 /// KIR3DL3 /// KIR3DL3 /// KIR3DS1 (11738374_at) / RFU C1QL1 (11718748_at) / Fold change /veh C1QL1 (11718748_at) / RFU TMPRSS4 (11747572_a_at) / Fold change /veh TMPRSS4 (11747572_a_at) / RFU HAMP (11756126_x_at) / Fold change /veh HAMP (11756126_x_at) / RFU RNFT2 (11725882_a_at) / Fold change /veh RNFT2 (11725882_a_at) / RFU NR4A2 (11747474_a_at) / Fold change /veh NR4A2 (11747474_a_at) / RFU ABCC12 (11746883_a_at) / Fold change /veh ABCC12 (11746883_a_at) / RFU TMEM136 (11760407_x_at) / Fold change /veh TMEM136 (11760407_x_at) / RFU CLDN22 /// WWC2 (11732394_at) / Fold change /veh CLDN22 /// WWC2 (11732394_at) / RFU HLA-DPB1 (11760878_x_at) / Fold change /veh HLA-DPB1 (11760878_x_at) / RFU SPINT1 (11716480_a_at) / Fold change /veh SPINT1 (11716480_a_at) / RFU GAP43 (11754022_s_at) / Fold change /veh GAP43 (11754022_s_at) / RFU A4GNT (11735810_at) / Fold change /veh A4GNT (11735810_at) / RFU PRB3 (11715151_x_at) / Fold change /veh PRB3 (11715151_x_at) / RFU TUBB4B (11761932_at) / Fold change /veh TUBB4B (11761932_at) / RFU CAPN14 (11732068_a_at) / Fold change /veh CAPN14 (11732068_a_at) / RFU TMCC2 (11721928_a_at) / Fold change /veh TMCC2 (11721928_a_at) / RFU IRGQ (11745062_a_at) / Fold change /veh IRGQ (11745062_a_at) / RFU FAM174B (11720279_a_at) / Fold change /veh FAM174B (11720279_a_at) / RFU TMPRSS4 (11748680_a_at) / Fold change /veh TMPRSS4 (11748680_a_at) / RFU FAM212B (11763350_a_at) / Fold change /veh FAM212B (11763350_a_at) / RFU PLEKHG5 (11743358_a_at) / Fold change /veh PLEKHG5 (11743358_a_at) / RFU ZSCAN30 (11745921_a_at) / Fold change /veh ZSCAN30 (11745921_a_at) / RFU CMKLR1 (11741424_a_at) / Fold change /veh CMKLR1 (11741424_a_at) / RFU LOC101060620 /// MAPK8IP1 (11723275_at) / Fold change /veh LOC101060620 /// MAPK8IP1 (11723275_at) / RFU SPTSSB (11747773_x_at) / Fold change /veh SPTSSB (11747773_x_at) / RFU PRSS12 (11739890_at) / Fold change /veh PRSS12 (11739890_at) / RFU BIN1 (11741810_x_at) / Fold change /veh BIN1 (11741810_x_at) / RFU WNT11 (11732464_a_at) / Fold change /veh WNT11 (11732464_a_at) / RFU C10orf10 (11716521_a_at) / Fold change /veh C10orf10 (11716521_a_at) / RFU C5orf56 (11738089_at) / Fold change /veh C5orf56 (11738089_at) / RFU CYB561 (11721691_x_at) / Fold change /veh CYB561 (11721691_x_at) / RFU ANKRD19P (11752326_a_at) / Fold change /veh ANKRD19P (11752326_a_at) / RFU OR2T12 /// OR2T33 /// OR2T8 (11738714_s_at) / Fold change /veh OR2T12 /// OR2T33 /// OR2T8 (11738714_s_at) / RFU VCAN (11748164_a_at) / Fold change /veh VCAN (11748164_a_at) / RFU JSRP1 (11732532_at) / Fold change /veh JSRP1 (11732532_at) / RFU KRTAP10-11 (11738290_x_at) / Fold change /veh KRTAP10-11 (11738290_x_at) / RFU MYO3A (11730013_a_at) / Fold change /veh MYO3A (11730013_a_at) / RFU EBF3 (11725865_a_at) / Fold change /veh EBF3 (11725865_a_at) / RFU CAMK2N1 (11719241_x_at) / Fold change /veh CAMK2N1 (11719241_x_at) / RFU C5orf56 (11738088_a_at) / Fold change /veh C5orf56 (11738088_a_at) / RFU OLFML3 (11715873_a_at) / Fold change /veh OLFML3 (11715873_a_at) / RFU LOC100653217 /// NTM (11731650_a_at) / Fold change /veh LOC100653217 /// NTM (11731650_a_at) / RFU MAPK11 (11762145_a_at) / Fold change /veh MAPK11 (11762145_a_at) / RFU FIZ1 (11724087_x_at) / Fold change /veh FIZ1 (11724087_x_at) / RFU OASL (11726364_x_at) / Fold change /veh OASL (11726364_x_at) / RFU SOX15 (11748057_x_at) / Fold change /veh SOX15 (11748057_x_at) / RFU CD79A (11719716_a_at) / Fold change /veh CD79A (11719716_a_at) / RFU HIST1H1D (11736915_at) / Fold change /veh HIST1H1D (11736915_at) / RFU CASKIN2 (11723855_a_at) / Fold change /veh CASKIN2 (11723855_a_at) / RFU LOC730098 (11760151_x_at) / Fold change /veh LOC730098 (11760151_x_at) / RFU OR4N2 (11742367_at) / Fold change /veh OR4N2 (11742367_at) / RFU PRRT2 (11749266_a_at) / Fold change /veh PRRT2 (11749266_a_at) / RFU SNX32 (11753110_a_at) / Fold change /veh SNX32 (11753110_a_at) / RFU CDHR5 (11726645_a_at) / Fold change /veh CDHR5 (11726645_a_at) / RFU RCAN1 (11760418_a_at) / Fold change /veh RCAN1 (11760418_a_at) / RFU FAM167A (11723789_a_at) / Fold change /veh FAM167A (11723789_a_at) / RFU FAM26E (11764081_at) / Fold change /veh FAM26E (11764081_at) / RFU ISYNA1 (11749810_s_at) / Fold change /veh ISYNA1 (11749810_s_at) / RFU ACY1 (11761880_at) / Fold change /veh ACY1 (11761880_at) / RFU 11764098_at / Fold change /veh 11764098_at / RFU SAMD14 (11745864_x_at) / Fold change /veh SAMD14 (11745864_x_at) / RFU NPB (11741838_a_at) / Fold change /veh NPB (11741838_a_at) / RFU TMPRSS6 (11731388_a_at) / Fold change /veh TMPRSS6 (11731388_a_at) / RFU KRTAP10-2 (11738614_at) / Fold change /veh KRTAP10-2 (11738614_at) / RFU ARHGAP8 /// PRR5-ARHGAP8 (11727945_x_at) / Fold change /veh ARHGAP8 /// PRR5-ARHGAP8 (11727945_x_at) / RFU KRTAP5-7 /// NADSYN1 (11734609_at) / Fold change /veh KRTAP5-7 /// NADSYN1 (11734609_at) / RFU RASL12 (11751679_a_at) / Fold change /veh RASL12 (11751679_a_at) / RFU CDKN2B (11736163_a_at) / Fold change /veh CDKN2B (11736163_a_at) / RFU PRF1 (11729649_at) / Fold change /veh PRF1 (11729649_at) / RFU, ZNF638 /// ZNF638-IT1 / Fold change vs veh, ZNF638 /// ZNF638-IT1 / RFU, PANK3 / Fold change vs veh, PANK3 / RFU, SH3YL1 / Fold change vs veh, SH3YL1 / RFU, ZEB2 / Fold change vs veh, ZEB2 / RFU, NRIP1 / Fold change vs veh, NRIP1 / RFU, PTTG1IP / Fold change vs veh, PTTG1IP / RFU, CAPN2 / Fold change vs veh, CAPN2 / RFU, MED14 / Fold change vs veh, MED14 / RFU, SNORA58 / Fold change vs veh, SNORA58 / RFU, C1orf63 / Fold change vs veh, C1orf63 / RFU, LRRFIP1 / Fold change vs veh, LRRFIP1 / RFU, NDUFAF7 / Fold change vs veh, NDUFAF7 / RFU, SLC12A2 / Fold change vs veh, SLC12A2 / RFU, IBTK / Fold change vs veh, IBTK / RFU, ESF1 / Fold change vs veh, ESF1 / Fold change vs veh, TMEM50B / RFU, TAOK1 / Fold change vs veh, TAOK1 / RFU, ACBD3 / Fold change vs veh, ACBD3 / RFU, TMA16 / Fold change vs veh, TMA16 / RFU, RWDD3 / Fold change vs veh, RWDD3 / RFU, BCAT1 / Fold change vs veh, BCAT1 / RFU, EDEM3 / Fold change vs veh, EDEM3 / RFU, TMEM33 / Fold change vs veh, TMEM33 / RFU, WDR75 / Fold change vs veh, WDR75 / RFU, AHCTF1 / Fold change vs veh, AHCTF1 / RFU, TFRC / Fold change vs veh, TFRC / RFU, ZDHHC17 / Fold change vs veh, ZDHHC17 / RFU, NOM1 / Fold change vs veh, NOM1 / RFU, ARL8B / Fold change vs veh, ARL8B / RFU, ZBTB11 / Fold change vs veh, ZBTB11 / RFU, TAMM41 / Fold change vs veh, TAMM41 / RFU, KIAA1704 /// LOC100996395 / Fold change vs veh, KIAA1704 /// LOC100996395 / RFU, ING1 / Fold change vs veh, ING1 / RFU, TRMT61B / Fold change vs veh, TRMT61B / RFU, FUBP3 / Fold change vs veh, FUBP3 / RFU, TP53 / Fold change vs veh, TP53 / RFU, TNKS2 / Fold change vs veh, TNKS2 / RFU, ZFP14 / Fold change vs veh, ZFP14 / RFU, ACTR2 / Fold change vs veh, ACTR2 / RFU, PPP3R1 / Fold change vs veh, PPP3R1 / RFU, PIK3R1 / Fold change vs veh, PIK3R1 / RFU, HNRNPA1 / Fold change vs veh, HNRNPA1 / RFU, RNF170 / Fold change vs veh, RNF170 / RFU, ZNF28 / Fold change vs veh, ZNF28 / RFU, RNGTT / Fold change vs veh, RNGTT / RFU, OGT / Fold change vs veh, OGT / RFU, BRD1 / Fold change vs veh, BRD1 / RFU, MARS / Fold change vs veh, MARS / RFU, ZNF655 / Fold change vs veh, ZNF655 / RFU, FAHD1 / Fold change vs veh, FAHD1 / RFU, BDP1 / Fold change vs veh, BDP1 / RFU, LRRCC1 / Fold change vs veh, LRRCC1 / RFU, ARID1A / Fold change vs veh, ARID1A / RFU, ZNF146 / Fold change vs veh, ZNF146 / RFU, ZNF330 / Fold change vs veh, ZNF330 / RFU, GPN3 / Fold change vs veh, GPN3 / RFU, C9orf123 / Fold change vs veh, C9orf123 / RFU, N4BP2L2 / Fold change vs veh, N4BP2L2 / RFU, ARFIP1 / Fold change vs veh, ARFIP1 / RFU, FAM179B / Fold change vs veh, FAM179B / RFU, BCL10 / Fold change vs veh, BCL10 / RFU, UHRF1BP1L / Fold change vs veh, UHRF1BP1L / RFU, BET1 / Fold change vs veh, BET1 / RFU, CNOT2 / Fold change vs veh, CNOT2 / RFU, ZNF268 / Fold change vs veh, ZNF268 / Fold change vs veh, ZNF507 / RFU, DGCR2 / Fold change vs veh, DGCR2 / RFU, WDSUB1 / Fold change vs veh, WDSUB1 / Fold change vs veh, HSP90B1 /// MIR3652 / RFU, ADSS / Fold change vs veh, ADSS / RFU, GK / Fold change vs veh, GK / RFU, ZNF148 / Fold change vs veh, ZNF148 / RFU, TAF9 / Fold change vs veh, TAF9 / RFU, SLC1A5 / Fold change vs veh, SLC1A5 / RFU, SLMO2 / Fold change vs veh, SLMO2 / RFU, ABCC4 / Fold change vs veh, ABCC4 / RFU, LOC101060439 /// RAP1B / Fold change vs veh, LOC101060439 /// RAP1B / RFU, RFX7 / Fold change vs veh, RFX7 / RFU, GTPBP10 / Fold change vs veh, GTPBP10 / RFU, CNEP1R1 / Fold change vs veh, CNEP1R1 / RFU, BIVM-ERCC5 /// ERCC5 / Fold change vs veh, BIVM-ERCC5 /// ERCC5 / RFU, ILF3 / Fold change vs veh, ILF3 / RFU 11762660_at / Fold change /veh 11762660_at / RFU VCAN (11757783_s_at) / Fold change /veh VCAN (11757783_s_at) / RFU DDX43 (11728927_at) / Fold change /veh DDX43 (11728927_at) / RFU KRT8 (11758188_x_at) / Fold change /veh KRT8 (11758188_x_at) / RFU NKD1 (11759106_at) / Fold change /veh NKD1 (11759106_at) / RFU SRD5A1 (11742802_a_at) / Fold change /veh SRD5A1 (11742802_a_at) / RFU TPSAB1 /// TPSB2 (11721975_s_at) / Fold change /veh TPSAB1 /// TPSB2 (11721975_s_at) / RFU GSTM3 (11746129_a_at) / Fold change /veh GSTM3 (11746129_a_at) / RFU IL23R (11737362_x_at) / Fold change /veh IL23R (11737362_x_at) / RFU TMEM51 (11727254_a_at) / Fold change /veh TMEM51 (11727254_a_at) / RFU PIWIL2 (11732686_x_at) / Fold change /veh PIWIL2 (11732686_x_at) / RFU ORM1 (11744905_x_at) / Fold change /veh ORM1 (11744905_x_at) / RFU CCDC152 (11743942_at) / Fold change /veh CCDC152 (11743942_at) / RFU ECM1 (11717891_a_at) / Fold change /veh ECM1 (11717891_a_at) / RFU IL23R (11748794_a_at) / Fold change /veh IL23R (11748794_a_at) / RFU TNFAIP8L3 (11732012_x_at) / Fold change /veh TNFAIP8L3 (11732012_x_at) / RFU MBOAT4 (11741988_at) / Fold change /veh MBOAT4 (11741988_at) / RFU 11764193_at / Fold change /veh 11764193_at / RFU TMEM53 (11763286_at) / Fold change /veh TMEM53 (11763286_at) / RFU MAGEB2 (11727129_at) / Fold change /veh MAGEB2 (11727129_at) / RFU TMEM200A (11744735_a_at) / Fold change /veh TMEM200A (11744735_a_at) / RFU CCDC152 (11751479_a_at) / Fold change /veh CCDC152 (11751479_a_at) / RFU FAM211A (11726209_a_at) / Fold change /veh FAM211A (11726209_a_at) / RFU RGS16 (11746705_a_at) / Fold change /veh RGS16 (11746705_a_at) / RFU VCAN (11755009_s_at) / Fold change /veh VCAN (11755009_s_at) / RFU RHOB (11743442_s_at) / Fold change /veh RHOB (11743442_s_at) / RFU RGS16 (11720943_a_at) / Fold change /veh RGS16 (11720943_a_at) / RFU RGS16 (11720944_at) / Fold change /veh RGS16 (11720944_at) / RFU, VPS4B / Fold change vs veh, VPS4B / RFU, CREB1 / Fold change vs veh, CREB1 / RFU, DNAJC13 / Fold change vs veh, DNAJC13 / RFU, GNAQ / Fold change vs veh, GNAQ / RFU, CDK5R1 / Fold change vs veh, CDK5R1 / RFU, ZRANB3 / Fold change vs veh, ZRANB3 / RFU, CUL4A / Fold change vs veh, CUL4A / RFU, CCNY / Fold change vs veh, CCNY / RFU, UFL1 / Fold change vs veh, UFL1 / RFU, COG3 / Fold change vs veh, COG3 / RFU, DIAPH2 / Fold change vs veh, DIAPH2 / RFU, SKA2 / Fold change vs veh, SKA2 / RFU, AFF3 / Fold change vs veh, AFF3 / RFU, LMF1 / Fold change vs veh, LMF1 / RFU, IPO11 / Fold change vs veh, IPO11 / RFU, DFFB / Fold change vs veh, DFFB / RFU, FOXP1 / Fold change vs veh, FOXP1 / RFU, CARD8 / Fold change vs veh, CARD8 / RFU, STRN3 / Fold change vs veh, STRN3 / RFU, ADK / Fold change vs veh, ADK / RFU, RASSF2 / Fold change vs veh, RASSF2 / RFU, WIPF1 / Fold change vs veh, WIPF1 / RFU, LARP1B / Fold change vs veh, LARP1B / RFU, RASA1 / Fold change vs veh, RASA1 / RFU, RB1 / Fold change vs veh, RB1 / RFU, PPFIA1 / Fold change vs veh, PPFIA1 / RFU, MAT2A / Fold change vs veh, MAT2A / RFU, CCT5 / Fold change vs veh, CCT5 / RFU, WDR92 / Fold change vs veh, WDR92 / RFU, CUX1 / Fold change vs veh, CUX1 / RFU, TTC7A / Fold change vs veh, TTC7A / RFU, TMEM135 / Fold change vs veh, TMEM135 / RFU, DEPTOR / Fold change vs veh, DEPTOR / RFU, CPM / Fold change vs veh, CPM / RFU, DNAJB6 / Fold change vs veh, DNAJB6 / RFU, CACNA2D3 / Fold change vs veh, CACNA2D3 / RFU, DTX4 / Fold change vs veh, DTX4 / RFU, TFCP2 / Fold change vs veh, TFCP2 / RFU, GMCL1 /// GMCL1P1 / Fold change vs veh, GMCL1 /// GMCL1P1 / RFU, AEBP2 / Fold change vs veh, AEBP2 / RFU, SNHG1 /// SNORD22 /// SNORD25 /// SNORD26 /// SNORD27 /// SNORD28 /// SNORD29 /// SNORD31 / Fold change vs veh, SNHG1 /// SNORD22 /// SNORD25 /// SNORD26 /// SNORD27 /// SNORD28 /// SNORD29 /// SNORD31 / Fold change (Aza/veh), C12orf56 (ProbeSet 11735607_a_at) / Fold change (ACY-1035/veh), C12orf56 (ProbeSet 11735607_a_at) / Fold change (Aza/veh), FGFR1OP (ProbeSet 11751329_s_at) / Fold change (ACY-1035/veh), FGFR1OP (ProbeSet 11751329_s_at) / Fold change (Aza/veh), VPS36 (ProbeSet 11739960_a_at) / Fold change (ACY-1035/veh), VPS36 (ProbeSet 11739960_a_at) / RFU SYPL1 (11715823_x_at) / Fold change /veh SYPL1 (11715823_x_at) / RFU IGFBP7 (11715501_s_at) / Fold change /veh IGFBP7 (11715501_s_at) / RFU REEP3 (11722064_at) / Fold change /veh REEP3 (11722064_at) / RFU IGLL1 (11728026_x_at) / Fold change /veh IGLL1 (11728026_x_at): dose or concentration left out as unconfirmed. The following applies: ProbeSet 11749477_a_at; LIST B.

In the case of `Nc1ncn([C@@H]2O[C@H](CO)[C@@H](O)[C@H]2O)c(=O)n1` [azacitidine], the “RFU, EDEM3” value stood at 49.32 RFU.

Values taken from paper PMC5218480 (PLoS ONE, 2017).
